Experimental data from ChEMBL document CHEMBL4261496, “Targeting quinolone- and aminocoumarin-resistant bacteria with new gyramide analogs that inhibit DNA gyrase” (Medchemcomm, 2017).
In brackets after ≈: the same amount, converted by molar mass. Activity calls are given as the source filed them. No cut-off for these calls is given here.

Experiments:
Escherichia coli [1] = assay: Antibacterial activity against Escherichia coli JW5503 after 16 to 18 hrs by broth microdilution method; type: functional
Escherichia coli [2] = assay: Antibacterial activity against novobiocin-resistant Escherichia coli CC5 harboring GyrB Arg136His mutant after 16 to 18 hrs in presence of PAbetaN by broth microdilution method; type: functional
Escherichia coli [3] = assay: Antibacterial activity against Escherichia coli JW5503 overexpressing gyrB in presence of IPTG induction after 16 hrs by broth microdilution method; type: functional; details: JW5503, 16 h
Escherichia coli [4] = assay: Antibacterial activity against novobiocin-resistant Escherichia coli CC7 harboring GyrB Arg136Ser mutant after 16 to 18 hrs in presence of PAbetaN by broth microdilution method; type: functional
Escherichia coli [5] = assay: Antibacterial activity against novobiocin-resistant Escherichia coli LE316 harboring GyrB Arg136Val mutant after 16 to 18 hrs in presence of PAbetaN by broth microdilution method; type: functional
Escherichia coli [6] = assay: Antibacterial activity against Escherichia coli JW5503 transfected with empty vector in presence of IPTG induction after 16 hrs by broth microdilution method; type: functional; details: JW5503, 16 h
Escherichia coli [7] = assay: Antibacterial activity against Escherichia coli JW5503 overexpressing gyrB at 51 ug/ml in presence of IPTG induction after 16 hrs by broth microdilution method; type: functional, organism-based
Escherichia coli [8] = assay: Antibacterial activity against Escherichia coli JW5503 transfected with empty vector in absence of IPTG induction after 16 hrs by broth microdilution method; type: functional; details: JW5503, 16 h
Escherichia coli [9] = assay: Antibacterial activity against Escherichia coli HB101 after 16 to 18 hrs in presence of PAbetaN by broth microdilution method; type: functional
Escherichia coli [10] = assay: Antibacterial activity against Escherichia coli HB101 after 16 to 18 hrs by broth microdilution method; type: functional
Escherichia coli [11] = assay: Antibacterial activity against Escherichia coli JW5503 overexpressing gyrA/gyrB in presence of IPTG induction after 16 hrs by broth microdilution method; type: functional; details: JW5503, 16 h
[12] = Ratio of MIC for Escherichia coli BW25113 to MIC for Escherichia coli JW5503; type: functional
Escherichia coli [13] = assay: Ratio of MIC for ciprofloxacin-resistant Escherichia coli JW5503 harboring GyrB Ser464Phe mutant to MIC for Escherichia coli JW5503; type: functional
Escherichia coli [14] = assay: Antibacterial activity against gyramide-resistant Escherichia coli JW5503 harboring GyrA Ser97Pro mutant after 16 to 18 hrs by broth microdilution method; type: functional
Escherichia coli [15] = assay: Antibacterial activity against Escherichia coli BW25113 after 16 to 18 hrs by broth microdilution method; type: functional
Klebsiella aerogenes = assay: Antibacterial activity against Enterobacter aerogenes clinical isolate after 16 to 18 hrs by broth microdilution method; type: functional
Escherichia coli [16] = assay: Ratio of MIC for ciprofloxacin-resistant Escherichia coli JW5503 harboring GyrA Asp87Gly mutant to MIC for Escherichia coli JW5503; type: functional
Enterococcus faecalis = assay: Antibacterial activity against Enterococcus faecalis after 16 to 18 hrs by broth microdilution method; type: functional
Escherichia coli [17] = assay: Ratio of MIC for gyramide-resistant Escherichia coli JW5503 harboring GyrA Pro35Thr mutant to MIC for Escherichia coli JW5503; type: functional
Escherichia coli [18] = assay: Ratio of MIC for gyramide-resistant Escherichia coli JW5503 harboring GyrA Phe96Leu mutant to MIC for Escherichia coli JW5503; type: functional
DNA gyrase = DNA gyrase (Escherichia coli, UniProt P0AES4+P0AES6); assay: Inhibition of Escherichia coli DNA gyrase assessed as inhibition of pUC19 supercoiling after 30 mins by agarose gel electrophoresis; type: protein-complex assay
Bacillus subtilis = assay: Antibacterial activity against Bacillus subtilis after 16 to 18 hrs by broth microdilution method; type: functional
Morganella morganii = assay: Antibacterial activity against Morganella morganii clinical isolate after 16 to 18 hrs by broth microdilution method; type: functional
Escherichia coli [19] = assay: Antibacterial activity against Escherichia coli MC4100 after 16 to 18 hrs by broth microdilution method; type: functional
Escherichia coli [20] = assay: Ratio of MIC for gyramide-resistant Escherichia coli JW5503 harboring GyrA Ser97Pro mutant to MIC for Escherichia coli JW5503; type: functional
Escherichia coli [21] = assay: Antibacterial activity against gyramide-resistant Escherichia coli JW5503 harboring GyrA Phe96Leu mutant after 16 to 18 hrs by broth microdilution method; type: functional
Streptococcus pyogenes = assay: Antibacterial activity against Streptococcus pyogenes after 16 to 18 hrs by broth microdilution method; type: functional
Bacillus cereus = assay: Antibacterial activity against Bacillus cereus after 16 to 18 hrs by broth microdilution method; type: functional
Edwardsiella tarda = assay: Antibacterial activity against Edwardsiella tarda clinical isolate after 16 to 18 hrs by broth microdilution method; type: functional
Streptococcus agalactiae = assay: Antibacterial activity against Streptococcus agalactiae after 16 to 18 hrs by broth microdilution method; type: functional
Escherichia coli [22] = assay: Ratio of MIC for gyramide-resistant Escherichia coli JW5503 harboring GyrB Ser464Phe mutant to MIC for Escherichia coli JW5503; type: functional
Klebsiella pneumoniae = assay: Antibacterial activity against Klebsiella pneumoniae after 16 to 18 hrs by broth microdilution method; type: functional
Escherichia coli [23] = assay: Ratio of MIC for ciprofloxacin-resistant Escherichia coli JW5503 harboring GyrA Asp87Tyr mutant to MIC for Escherichia coli JW5503; type: functional
Shigella flexneri = assay: Antibacterial activity against Shigella flexneri after 16 to 18 hrs by broth microdilution method; type: functional
Escherichia coli [24] = assay: Antibacterial activity against gyramide-resistant Escherichia coli JW5503 harboring GyrA His45Tyr mutant after 16 to 18 hrs by broth microdilution method; type: functional
Escherichia coli [25] = assay: Ratio of MIC for novobiocin-resistant Escherichia coli LE316 harboring GyrB Arg136Val mutant to MIC for Escherichia coli HB101; type: functional
Salmonella typhimurium = assay: Antibacterial activity against Salmonella enterica subsp. enterica serovar Typhimurium after 16 to 18 hrs by broth microdilution method; type: functional
Escherichia coli [26] = assay: Antibacterial activity against ciprofloxacin-resistant Escherichia coli JW5503 harboring GyrB Ser464Phe mutant after 16 to 18 hrs by broth microdilution method; type: functional
Acinetobacter baumannii = assay: Antibacterial activity against Acinetobacter baumannii clinical isolate after 16 to 18 hrs by broth microdilution method; type: functional
Pseudomonas aeruginosa = assay: Antibacterial activity against Pseudomonas aeruginosa after 16 to 18 hrs by broth microdilution method; type: functional
Escherichia coli [27] = assay: Antibacterial activity against gyramide-resistant Escherichia coli JW5503 harboring GyrA Pro35Thr mutant after 16 to 18 hrs by broth microdilution method; type: functional
Escherichia coli [28] = assay: Antibacterial activity against gyramide-resistant Escherichia coli JW5503 harboring GyrB Thr508Met mutant after 16 to 18 hrs by broth microdilution method; type: functional
Escherichia coli [29] = assay: Ratio of MIC for novobiocin-resistant Escherichia coli CC7 harboring GyrB Arg136Ser mutant to MIC for Escherichia coli HB101; type: functional
Escherichia coli [30] = assay: Ratio of MIC for ciprofloxacin-resistant Escherichia coli JW5503 harboring GyrA Ser83Leu mutant to MIC for Escherichia coli JW5503; type: functional
Escherichia coli [31] = assay: Antibacterial activity against Escherichia coli UPEC after 16 to 18 hrs by broth microdilution method; type: functional
[32] = tested on: Staphylococcus saprophyticus; assay: Antibacterial activity against Staphylococcus saprophyticus clinical isolate after 16 to 18 hrs by broth microdilution method; type: functional
Escherichia coli [33] = assay: Antibacterial activity against ciprofloxacin-resistant Escherichia coli JW5503 harboring GyrA Asp87Gly mutant after 16 to 18 hrs by broth microdilution method; type: functional
Enterococcus faecium = assay: Antibacterial activity against Enterococcus faecium after 16 to 18 hrs by broth microdilution method; type: functional
[34] = target: DNA gyrase (Escherichia coli) (UniProt P0AES6+P0AES4); assay: Inhibition of Escherichia coli DNA gyrase ATPase activity up to 100 uM using DNA as substrate after 60 mins; type: protein-complex assay
Escherichia coli [35] = assay: Antibacterial activity against ciprofloxacin-resistant Escherichia coli JW5503 harboring GyrA Asp87Tyr mutant after 16 to 18 hrs by broth microdilution method; type: functional
Staphylococcus aureus = assay: Antibacterial activity against Staphylococcus aureus subsp. aureus clinical isolate after 16 to 18 hrs by broth microdilution method; type: functional
Escherichia coli [36] = assay: Ratio of MIC for novobiocin-resistant Escherichia coli CC5 harboring GyrB Arg136His mutant to MIC for Escherichia coli HB101; type: functional
[37] = tested on: Staphylococcus epidermidis; assay: Antibacterial activity against Staphylococcus epidermidis clinical isolate after 16 to 18 hrs by broth microdilution method; type: functional
Escherichia coli [38] = assay: Ratio of MIC for gyramide-resistant Escherichia coli JW5503 harboring GyrA His45Tyr mutant to MIC for Escherichia coli JW5503; type: functional
Escherichia coli [39] = assay: Antibacterial activity against Escherichia coli BAS849 after 16 to 18 hrs by broth microdilution method; type: functional

SMILES: CO[C@@H]1[C@@H](OC(N)=O)[C@@H](O)[C@H](Oc2ccc3c(O)c(NC(=O)c4ccc(O)c(CC=C(C)C)c4)c(=O)oc3c2C)OC1(C)C [NOVOBIOCIN]
- MIC (Escherichia coli [1]): 0.8 µg/mL (≈ 1.31 µM)
- MIC (Escherichia coli [2]): 102 µg/mL
- MIC (Escherichia coli [3]): 6.3 µg/mL
- MIC (Escherichia coli [4]): 6.4 µg/mL
- MIC (Escherichia coli [5]): 12.8 µg/mL
- MIC (Escherichia coli [6]): 0.4 µg/mL
- Activity (Escherichia coli [7]): inactive
- MIC (Escherichia coli [8]): 0.4 µg/mL (≈ 0.653 µM)
- MIC (Escherichia coli [9]): 3.2 µg/mL
- MIC (Escherichia coli [10]): > 100 µg/mL
- MIC (Escherichia coli [11]): 3.2 µg/mL

SMILES: Cc1ccc(F)cc1S(=O)(=O)N[C@@H]1CCN(Cc2ccc(-c3ccccc3)cc2)C1
- Ratio [12]: > 1600

SMILES: Cc1ccc(C#N)cc1S(=O)(=O)N[C@@H]1CCN(Cc2ccc(-c3ccccc3)cc2)C1
- Ratio (Escherichia coli [13]): 2 - 4
- MIC (Escherichia coli [14]): 22 µg/mL (≈ 51 µM)
- MIC (Escherichia coli [15]): 8 µg/mL (≈ 18.5 µM)
- MIC (Klebsiella aerogenes): > 16 µg/mL
- Ratio (Escherichia coli [16]): 2 - 4
- MIC (Enterococcus faecalis): > 16 µg/mL
- Ratio (Escherichia coli [17]): 10 - 100
- Ratio (Escherichia coli [18]): 10 - 100
- IC50 (DNA gyrase): 47 nM
- MIC (Bacillus subtilis): > 16 µg/mL
- MIC (Morganella morganii): > 16 µg/mL
- MIC (Escherichia coli [19]): 8 µg/mL (≈ 18.5 µM)
- Ratio (Escherichia coli [20]): 10 - 100
- MIC (Escherichia coli [21]): 2.7 µg/mL (≈ 6.26 µM)
- MIC (Escherichia coli [1]): 0.1 µg/mL (≈ 0.232 µM)
- MIC (Streptococcus pyogenes): > 16 µg/mL
- MIC (Bacillus cereus): > 16 µg/mL
- MIC (Edwardsiella tarda): 8 µg/mL (≈ 18.5 µM)
- MIC (Streptococcus agalactiae): > 16 µg/mL
- Ratio (Escherichia coli [22]): 10 - 100
- MIC (Klebsiella pneumoniae): > 16 µg/mL
- Ratio (Escherichia coli [23]): 2 - 4
- MIC (Shigella flexneri): 4 µg/mL (≈ 9.27 µM)
- MIC (Escherichia coli [24]): 22 µg/mL (≈ 51 µM)
- Ratio (Escherichia coli [25]): 2 - 4
- MIC (Salmonella typhimurium): 2 µg/mL (≈ 4.63 µM)
- MIC (Escherichia coli [26]): 0.4 µg/mL (≈ 0.927 µM)
- MIC (Acinetobacter baumannii): > 16 µg/mL
- MIC (Pseudomonas aeruginosa): > 16 µg/mL
- MIC (Escherichia coli [27]): 5.4 µg/mL (≈ 12.5 µM)
- MIC (Escherichia coli [28]): 1.3 µg/mL (≈ 3.01 µM)
- Ratio (Escherichia coli [29]): 2 - 4
- Ratio (Escherichia coli [30]): 2 - 4
- MIC (Escherichia coli [31]): > 16 µg/mL
- MIC [32]: > 16 µg/mL
- MIC (Escherichia coli [5]): 0.2 µg/mL
- MIC (Escherichia coli [33]): 0.2 µg/mL (≈ 0.463 µM)
- MIC (Enterococcus faecium): > 16 µg/mL
- inhibition [34]: inactive
- MIC (Escherichia coli [35]): 0.1 µg/mL (≈ 0.232 µM)
- MIC (Staphylococcus aureus): > 16 µg/mL
- MIC (Escherichia coli [10]): 1 µg/mL (≈ 2.32 µM)
- Ratio (Escherichia coli [36]): 2 - 4
- MIC [37]: > 16 µg/mL
- Ratio (Escherichia coli [38]): 10 - 100
- Ratio [12]: 80
- MIC (Escherichia coli [39]): 0.5 µg/mL (≈ 1.16 µM)
